Measurements reported in patent US20080153882A1, “Pharmaceutical Composition Comprising Ppar Regulator” (priority 2005, published 2008).

Test system: rat adjuvant arthritis model
Assay: Anti-arthritic action in rat adjuvant arthritis model (footpad volume increase suppression)
Type: in vivo
Details: female Lewis rats, oral once a day, Compound No. 1 0.1 mg/kg, Formula (II) 10.0 mg/kg; for Footpad volume increase suppression ratio (%) After 11 days: right hind leg volume on day 11 after start of administration; for Footpad volume increase suppression ratio (%) After 18 days: right hind leg volume on day 18 after start of administration
Description: A rat adjuvant arthritis model developing arthritis that is similar to human rheumatoid arthritis was used, and effect of the pharmaceutical composition according to the present invention with respect to the arthritis was evaluated by using footpad volume increase suppression rate as an indicator. Eight-week old female Lewis rats were used in the experiment.
Heat killed Mycobacterium butyricum was ground in an agate mortar, then suspended in dry heat sterilized liquid paraffin so as to have a concentration of 2 mg/ml, and treated with sonication to prepare an adjuvant.
The test compound was suspended or dissolved in a 0.5% tragacanth solution. As the test compound, the compound of Compound No. 1 described in Table 1 was used as the amino alcohol derivative, and the compound of the formula (II) was used as the PPAR regulator.
0.05 ml of the adjuvant prepared in (1) was injected subcutaneously into the footpad of right hind leg of rats, with respect to a control group and a test compound administration group. Here, 5 rats were used for each group. In addition, a normal control group was provided as a group without injection of the adjuvant.
The test compound prepared in (2) was orally administrated once a day in the amount of 5 ml/kg, […]. The control group was administered with only the 0.5% tragacanth solution in a similar manner.
After the start of administration, on day 11 and day 18, the volume of the right hind leg was measured by a leg volume measuring device, and the mean value of the swelling volume was calculated for each group.
The footpad volume increase suppression ratio (%) was calculated by the following equation, and evaluated.
Footpad volume increase suppression ratio (%)=(1-([footpad volume of test compound administration group]-[footpad volume of normal control group])/[footpad volume of control group]−[footpad volume of normal control group]))×100

Compound | Footpad volume increase suppression ratio (%) After 11 days | Footpad volume increase suppression ratio (%) After 18 days
Cn1c(CC[C@@](C)(N)CO)ccc1C(=O)CCCCc1ccccc1 [Compound No. 1] | 43.0% | 44.8%
COc1ccc2nc(COc3ccc(CC4SC(=O)NC4=O)cc3)n(C)c2c1.Cl (stereo not shown) [Formula (II), 5-[4-(6-methoxy-1-methyl-1-H-benzimidazol-2-ylmethoxy)benzyl]thiazoline-2,4-dione hydrochloride] | 24.7% | 30.1%
